Data reported in patent publication US3956314A, “Derivatives of 2-pyrrolidinone” (U.C.B., Societe Anonyme, priority 1970, dated 1976).

Columns and labels:
[1] = toxicity determined in rat by intraperitoneal administration (LD50); conditions: in vivo, ip
From the text: Moreover, the compounds of the invention have low toxicity.

[2] = tested on: Wistar rats; experiment: anxiolytic action: shuttle box conditioning test, painful electric shocks, second sequence; assay type: in vivo
Method: Wistar rats (weighing 100 g. ± 20 g.) are first permitted to become accustomed, during 10 minutes, to conditioning cages of the shuttle box type, after which they are subjected to a first sequence of 20 painful electric shocks of 3 seconds on their paws repeated every 30 seconds. During this first sequence, the rats ran away before the end of the shock about 15 times out of 20 shocks.
On the other hand, if these same animals are subjected to a sequence of shocks 4 hours later, paradoxically, instead of improving their performance (as in the course of a normal training) a reduction in the number of evasions is found: the animals have become set and are less successful in running away before the end of the shocks. This behavior is attributed to an anxiety state induced by the experimental situation.
Intraperitoneal administration of an anxiolytic substance to the rats, half an hour before the second sequence is carried out, improves their performance (increase in the number of evasions before the end of the shock).
A group of rats, to which a substance to be tested is administered, is compared with a group of control rats, which has been injected with physiological serum under the same conditions. […]

Work on `O=C1NC[C@H](c2ccc(Cl)cc2)[C@@H]1c1ccccc1` (relative stereo) [E, 4-p-chlorophenyl-3-phenyl-2-pyrrolidinone (cis isomer)] yielded an LD50 [1] of 320 mg/kg.
For `CC1C(=O)NCC1c1ccc(Cl)cc1` [Compound D, 4-p-chlorophenyl-3-methyl-2-pyrrolidinone (trans isomer)], the LD50 [1] was 306 mg/kg.
For `CNC1=Nc2ccc(Cl)cc2C(c2ccccc2)=[N+]([O-])C1` [S, 7-chloro-2-methylamino-5-phenyl-3H-1,4-benzodiazepine-4-oxide], the LD50 ([1]; reference drug) was 240 mg/kg.
With `O=C1CC(c2ccc(Cl)cc2)CN1` (centres unmarked) [T, 4-(para-chlorophenyl)-pyrrolidone-(2)] the “performance (in words)” value ([2]; dose of 0.32 mmole/kg) was “a decrease in the performance” and the “anxiolytic action (in words)” value ([2]; rat shuttle box test) was “practically no anxiolytic action”.
